Consider five molecules from US4046904A, “Novel penicillin, and its preparation and use” (Sumitomo Chemical Company, Limited, priority 1975, dated 1977).

The test system of series [1] is Pseudomonas. To be noted: background statement; cited from earlier work.
In series [2] the test system is Enterobacter aerogenes. Nature of the series: Median MIC, clinical isolates, agar-plate dilution (Table 1). The class given is cell-based. The following applies: Klebsiella aerogenes, 8 clinical isolates, sodium salt, read-out: Median minimum inhibitory concentration. On the procedure:
(§1) Note: Compound (I) and Compound (A) were subjected to the test in the form of the sodium salt. The minimum inhibitory concentration (MIC) was determined using the agar-plate dilution method recommended by Japan Society of Chemotherapy.

The subject of series [3] is Escherichia. Described as above. The class given is cell-based. The following applies: read-out: Median minimum inhibitory concentration. As to the method: as §1
For series [4], the system named is Klebsiella pneumoniae. Described as above. Type of series: cell-based. To be noted: 26 clinical isolates, sodium salt, read-out: Median minimum inhibitory concentration. As to the method: as §1
Series [5] concerns Proteus morganii. The description is as above. To be noted: Morganella morganii, 14 clinical isolates, sodium salt, read-out: Median minimum inhibitory concentration. Type of series: cell-based. On the procedure:
as §1

Series [6] relates to Proteus vulgaris. The series is described as above. Type of series: cell-based. To be noted: 7 clinical isolates, sodium salt, read-out: Median minimum inhibitory concentration. As to the method: as §1
Series [7] relates to Pseudomonas aeruginosa. The series is described as above. The class given is cell-based. To be noted: 49 clinical isolates, sodium salt, read-out: Median minimum inhibitory concentration. On the procedure:
as §1

For series [8], the system named is Serratia. The series is described as above. The class given is cell-based. To be noted: 6 clinical isolates, sodium salt, read-out: Median minimum inhibitory concentration. As to the method: as §1
Series [9] has as its system Staphylococcus aureus. Described as above. The class given is cell-based. The following applies: 37 clinical isolates, sodium salt, read-out: Median minimum inhibitory concentration. On the procedure:
as §1

The subject of series [10] is Escherichia coli. Briefly: MIC, nutrient broth dilution (Table 2). The class given is cell-based. The following applies: Escherichia coli strain NIHJ, sodium salt. As to the method:
(§2) Note: Compound (I), Compound (A) and Compound (B) were subjected to the test in the form of the sodium salt. For each test, eight male ICR-SLC strain mice were used at each dose level. MIC was determined by the nutrient broth dilution method. In determination of PD50, subcutaneous treatment was carried out twice, i.e. 1 and 4 hours after infection.

Series [11] concerns Klebsiella pneumoniae. Nature of the series: MIC, nutrient broth dilution (Table 2). Type of series: cell-based. The following applies: Klebsiella pneumoniae strain No. 6, sodium salt. As to the method:
as §2
(In general: Dilution methods test growth across graded concentrations, often in twofold steps.)

The test system of series [12] is Pseudomonas aeruginosa. Briefly: MIC, nutrient broth dilution (Table 2). The class given is cell-based. As to the method: as §2
For series [13], the system named is Escherichia coli. Nature of the series: Intraperitoneal infection in mice, median protective dose (Table 2). Type of series: in vivo. To be noted: sc, E. coli strain NIHJ, male ICR-SLC mice, subcutaneous, 1 and 4 hours after infection, sodium salt, read-out: PD50. On the procedure: as §2
Series [14] deals with Klebsiella pneumoniae. The description is as above. The following applies: sc, subcutaneous, 1 and 4 hours after infection, sodium salt, read-out: PD50. Type of series: in vivo. As to the method:
as §2

Series [15] relates to Pseudomonas aeruginosa. The series is described as above. Type of series: in vivo. To be noted: sc, subcutaneous, 1 and 4 hours after infection, sodium salt, read-out: PD50. As to the method: as §2
For series [16], the system named is Proteus mirabilis. Briefly: MIC (Table 3). The class given is cell-based. To be noted: Proteus mirabilis strain GN2425; sodium salt. The source says:
The minimum inhibitory concentrations obtained with Compound (I) and Compound (C) against the following organisms representing 6 genera are shown in Table 3.
(§3) Note: Compound (I) and Compound (C) were subjected to the test in the form of the sodium salt.

The subject of series [17] is Staphylococcus aureus. Nature of the series: Median MIC, clinical isolates, agar-plate dilution (Table 4). The class given is cell-based. The following applies: 37 strains, agar-plate dilution, sodium salt, read-out: Median minimum inhibitory concentration. As to the method: (§4) Note: Compound (I) and Compound (C) were subjected to the test in the form of the sodium salt. MIC was determined using the agar-plate dilution method.

For series [18], the system named is Streptococcus faecalis. Described as above. The following applies: Enterococcus faecalis, 23 strains, agar-plate dilution, sodium salt, read-out: Median minimum inhibitory concentration. The class given is cell-based. As to the method: as §4
Series [19] deals with Pseudomonas aeruginosa. Nature of the series: MIC, nutrient broth dilution (Table 5). To be noted: Pseudomonas aeruginosa strain TS, sodium salt. Type of series: cell-based. As to the method: (§5) The relative activities of Compound (I) and Compound (C) against various intraperitioneal infections in mice evaluated by the minimum inhibitory concentrations and the means median protective doses (subcutaneously administered) are shown in Table 5.
(§6) Note: Compound (I) and Compound (C) were subjected to the test in the form of the sodium salt. For each test, five male ICR-SLC strain mice were used at each dose level. MIC was determined by the nutrient broth dilution method. In determination of PD50, subsutaneous treatment was carried out three times, i.e. 1, 3 and 5 hours after infection.

Series [20] concerns Streptococcus faecalis. Nature of the series: MIC, nutrient broth dilution (Table 5). Type of series: cell-based. To be noted: Enterococcus faecalis, Streptococcus faecalis strain F10, sodium salt. As to the method: as §5, §6
The test system of series [21] is Klebsiella pneumoniae. Nature of the series: Intraperitoneal infection in mice, median protective dose (Table 5). The class given is in vivo. To be noted: sc, K. pneumoniae strain No. 1, male ICR-SLC mice, subcutaneous, 1, 3 and 5 hours after infection, sodium salt, read-out: PD50. As to the method: as §5, §6
Series [22] deals with Pseudomonas aeruginosa. The series is described as above. Type of series: in vivo. To be noted: sc, P. aeruginosa strain TS, male ICR-SLC mice, subcutaneous, 1, 3 and 5 hours after infection, sodium salt, read-out: PD50. On the procedure: as §5, §6
For series [23], the system named is Staphylococcus aureus. The series is described as above. Type of series: in vivo. The following applies: sc, S. aureus strain A24, male ICR-SLC mice, subcutaneous, 1, 3 and 5 hours after infection, sodium salt, read-out: PD50. On the procedure: as §5, §6
For series [24], the system named is Streptococcus faecalis. The series is described as above. The class given is in vivo. To be noted: Enterococcus faecalis, sc; S. faecalis strain F10; male ICR-SLC mice; subcutaneous, 1, 3 and 5 hours after infection; sodium salt; read-out: PD50. On the procedure:
as §5, §6

Series [25] can be described thus: Protein-binding rate in human serum (Table 6). The class given is in vitro ADME. To be noted: human, serum, sodium salt.
Text: The following data are related to the pharmacokinetic profiles of Compound (I) compared with Compound (C).
as §3

A short description of series [26]: Serum level in mice after subcutaneous administration (Table 7). Type of series: in vivo, ICR-SLC strain mice. To be noted: mouse, sc, subcutaneous 50 mg/kg, sodium salt. On the procedure: The peak serum concentrations of Compound (I) and Compound (C) in ICR strain mice following subcutaneous administration at 50 mg/kg are shown in Table 7.
Note: Compound (I) and Compound (C) were subjected to the test in the form of the sodium salt. For the test, three male ICR-SLC strain mice were used. The bioassay was carried out according to the disc method using Bacillus subtilis.

Series [27] is described as follows: Urinary excretion rate in rats after intramuscular administration (Table 8). The class given is in vivo, Wistar-HLA strain rats. The following applies: rat, urine, im, 20 mg/kg, male rats, intramuscular 20 mg/kg, sodium salt. On the procedure: The urinary excretion rates of Compound (I) and Compound (C) following an intramuscular administration of 20 mg/kg in male Wistar-HLA strain rats are shown in Table 8.
as §3

Series [28] can be described thus: Acute toxicity in mice, intraperitoneal (Table 9). To be noted: mouse, in vivo, ip.
Text: The acute toxicity of Compound (I) and Compound (C) in ICR strain mice when administered by intraperitoneal route are shown in Table 9.
as §3

The structures appear in SMILES notation. Values after ≈ are worked out from the molar mass of the structure shown.

Regarding `CC1(C)S[C@@H]2[C@H](NC(=O)[C@H](N)c3ccccc3)C(=O)N2[C@H]1C(=O)O` [Ampicillin], the anti-Pseudomonas activity result in series [1] is reported as “does not exert any appreciable anti-Pseudomonas activity”.

As to `CC1(C)S[C@@H]2[C@H](NC(=O)C(C(=O)O)c3ccccc3)C(=O)N2[C@H]1C(=O)O` (stereo partly shown) [Carbenicillin], in [1], the anti-Pseudomonas activity result is “not sufficiently strong”.

One may read the MIC as the lowest concentration that inhibits growth of the organism. In the case of `CC1(C)S[C@@H]2[C@H](NC(=O)[C@H](NC(=O)c3cnccc3O)c3ccc(O)cc3)C(=O)N2[C@H]1C(=O)O` [Compound (A), 6-[D-2-(4-hydroxypyridine-3-carbonamido)-2-(p-hydroxyphenyl)acetamido]penicillanic acid, reference compound], the MIC50 stood at 100 µg/mL in [2]; 14 µg/mL (≈ 28.8 µM) in series [3]; 73 µg/mL in [4]; 50 µg/mL in series [5]; 115 µg/mL in series [6]; 5 µg/mL in series [7]. Besides, the figures for the MIC50 in [8] and in [9] were greater than 200 µg/mL and 21 µg/mL, respectively. The MIC in [10] stood at 12.5 µg/mL; in series [11], 100 µg/mL; in [12] (Pseudomonas aeruginosa strain NC-5, sodium salt) it was 6.25 µg/mL; in series [12] (Pseudomonas aeruginosa strain T, sodium salt), 12.5 µg/mL. Also, the ED50 in series [13] is 3 mg/kg; in [14] (K. pneumoniae strain No. 1, male ICR-SLC mice) it was 100 mg/kg; in [14] (K. pneumoniae strain No. 6, male ICR-SLC mice), 120 mg/kg; in [14] (K. pneumoniae strain No. 20, male ICR-SLC mice), greater than 150 mg/kg; in series [15] (P. aeruginosa strain NC-5, male ICR-SLC mice), 60 mg/kg; in [15] (P. aeruginosa strain T, male ICR-SLC mice) it was 51 mg/kg.

The fraction unbound is the share of the substance not bound to proteins or other matrix. As usually defined, the LD50 is the dose at which mortality reaches 50%. Lower therefore signals greater toxicity. As for `CC1(C)S[C@@H]2[C@H](NC(=O)[C@H](NC(=O)c3cnc4cccnc4c3O)c3ccc(O)cc3)C(=O)N2[C@H]1C(=O)O` [Compound (C), 6-[D-2-(4-hydroxy-1,5-naphthyridine-3-carbonamido)-2-(p-hydroxyphenyl)acetamido]penicillanic acid, reference compound], the minimal inhibitory concentration (MIC) in series [16] came out at 1.56 µg/mL; in series [19] it was 3.13 µg/mL; in [20], 1.56 µg/mL. Also, the MIC50 in [17] came out at 60 µg/mL; in [18], 3.8 µg/mL. Besides, the ED50 in [21] turned out to be 18 mg/kg; in series [22], 15 mg/kg; in series [23], 32 mg/kg; in [24] it was 6 mg/kg. In addition, the figures for the free fraction (fraction unbound) in series [25] (Ultracentrifugation method) and in series [25] (Ultrafiltration method) were 0.08 and 0.1, respectively. Further, in [26] (1/2 hr.), the concentration at 0.5 h was 32000 ng/mL. In addition, the concentration at 0.25 h in series [26] (1/4 hr.) worked out at 44000 ng/mL. For the same molecule, the concentration at 1 h in [26] (1 hr.) was 8000 ng/mL. In addition, in series [26] (2 hr.), the concentration at 2 h was found to be 5000 ng/mL. Also, the dose excreted at 6 h in series [27] (0-6 hr.) was determined as 19.5%. Further, the dose excreted at 24 h in [27] (0-24 hr.) came to 20%; in series [27] (6-24 hr.), 0.5%. The same molecule yielded a 50% lethal dose (LD50) in series [28] of 3100 mg/kg.

For the molecule `CC1(C)S[C@@H]2[C@H](NC(=O)C(c3ccccc3)S(=O)(=O)O)C(=O)N2[C@H]1C(=O)O` (stereo partly shown) [Sulfocillin], in [1], the anti-Pseudomonas activity entry is “not sufficiently strong”.
